Measurements from patent US7566718B2, “Amine-linked pyridyl and phenyl substituted piperazine-piperidines with CXCR3 antagonist activity” (Schering Corporation, priority 2005, dated 2009).

Biological target: T1, human CXCR3 (N-delta 4) (Homo sapiens, UniProt P49682)
T1 construct: CD8 leader (N); Flag tag; expressed in transfected cells; membrane preparation
T1 sequence (P49682 5-368 limits assumed): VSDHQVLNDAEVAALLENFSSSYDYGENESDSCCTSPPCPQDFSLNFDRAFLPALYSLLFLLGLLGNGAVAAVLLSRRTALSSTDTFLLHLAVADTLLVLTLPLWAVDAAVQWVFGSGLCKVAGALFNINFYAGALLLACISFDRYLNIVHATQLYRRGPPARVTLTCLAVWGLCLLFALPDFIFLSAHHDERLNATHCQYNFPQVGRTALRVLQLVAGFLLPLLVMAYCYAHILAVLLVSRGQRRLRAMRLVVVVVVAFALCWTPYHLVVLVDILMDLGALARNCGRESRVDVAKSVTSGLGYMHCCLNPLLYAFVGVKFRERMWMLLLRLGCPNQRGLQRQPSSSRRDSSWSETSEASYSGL
Test: Human CXCR3 (N-delta 4) scintillation proximity assay (SPA), [125I] IP-10 binding to Ba/F3-hCXCR3 membranes
Conditions: IC50 rating; [125I] IP-10 displacement, human CXCR3; read-out: IC50
Description: The inventive compounds can readily be evaluated to determine activity at the CXCR3 receptors by known methods, such as, for example, development of a human CXCR3 (N-delta 4) Binding Assay.
The DNA encoding human CXCR3 was cloned by PCR using human genomic DNA (Promega, Madison, Wis.) as a template. The PCR primers were designed based on the published sequence of human orphan receptor GPR9 (1) with incorporated restriction sites, a Kozak consensus sequence, CD8 leader and Flag tag. The PCR product was subcloned into the mammalian expression vector pME18Sneo, a derivative of the SR-alpha expression vector (designated as pME18Sneo-hCXCR3 (N-delta 4).
IL-3-dependent mouse pro-B cells Ba/F3 were transfected by electroporation in 0.4 ml Dulbecco's PBS containing 4×10^6 cells with 20 μg of pME18Sneo-hCXCR3 (N-delta 4) plasmid DNA. Cells were pulsed at 400 Volts, 100 OHMs, 960 μFd. The transfected cells were under selection with 1 mg/ml G418 (Life Technologies, Gaithersburg, Md.). G418-resistant Ba/F3 clones were screened for CXCR3 expression by specific binding of [^125I] IP-10 (NEN Life Science Products, Boston, Mass.).
Ba/F3 cells expressing human CXCR3 (N-delta 4) were pelleted and resuspended in the lysis buffer containing 10 mM HEPES, pH 7.5 and Complete® protease inhibitors (1 tablet per 100 ml) (Boehringer Mannheim, Indianapolis, Ind.) at a cell density of 20×10^6 cells per ml. After 5 minute incubation on ice, cells were transferred to 4639 cell disruption bomb (Parr Instrument, Moline, Ill.) and applied with 1,500 psi of nitrogen for 30 minutes on ice. Large cellular debris was removed by centrifugation at 1,000×g. Cell membrane in the supernatant was sedimented at 100,000×g. The membrane was resuspended in the lysis buffer supplemented with 10% sucrose and stored at −80° C. Total protein concentration of the membrane was determined by BCA method from Pierce (Rockford, Ill.).
Human CXCR3 (N-Delta 4) Scintillation Proximity Assay (SPA):
For each assay point, 2 μg of membrane was preincubated for 1 hr with 300 μg wheat germ agglutinin (WGA) coated SPA beads (Amersham, Arlington Heights, Ill.) in the binding buffer (50 mM HEPES, 1 mM CaCl2, 5 mM MgCl2, 125 mM NaCl, 0.002% NaN3, 1.0% BSA) at room temperature. The beads were spun down, washed once, resuspended in the binding buffer and transferred to a 96-well Isoplate (Wallac, Gaithersburg, Md.). 25 pM of [^125I] IP-10 with tested compounds in a series of titration were added to start the reaction. After 3 hr reaction at room temperature, the amount of [^125I] IP-10 bound to the SPA beads was determined with a Wallac 1450 Microbeta counter.

| IC50 [nM] | SMILES |
| --- | --- |
| 25 to 100 | CC[C@H]1CN(c2ncc(NC3=NS(=O)(=O)N=C3NCCO)cc2Cl)CCN1C1CCN(Cc2ccc(F)c(F)c2)CC1 [Compound 257] |
| 25 to 100 | CC[C@H]1CN(c2ncc([N+](=O)[O-])cc2Cl)CCN1C1CCN(Cc2ccc(Cl)cc2F)CC1 [Compound 212] |
| 25 to 100 | CC[C@H]1CN(c2ncc(NC3=NS(=O)(=O)N=C3N)cc2Cl)CCN1C1CCN(Cc2ccc(Cl)cc2F)CC1 [Compound 259] |
| > 100 | CC[C@H]1CN(c2ncc(-n3cccc3)cc2Cl)CCN1C1CCN(Cc2ccc(Cl)cc2F)CC1 [Compound 222] |
| 25 to 100 | CC[C@H]1CN(c2ncc(NC3=NS(=O)(=O)N=C3N3CCOCC3)cc2Cl)CCN1C1CCN(Cc2ccc(OC(F)(F)F)cc2)CC1 [Compound 261] |
| < 25 | CC[C@H]1CN(c2ncc(NS(C)(=O)=O)cc2Cl)CCN1C1CCN(Cc2ccc(C)cc2)CC1 [Compound 19] |
| > 100 | Cc1cc(Nc2c(NCC(F)(F)F)c(=O)c2=O)cnc1N1C[C@@H](C)N(C2CCN(C(=O)c3ccc(C(F)(F)F)cc3)CC2)C[C@@H]1C [Compound 164] |
| > 100 | Cc1cc(Nc2c(NCC(F)(F)F)c(=O)c2=O)cnc1N1C[C@@H](C)N(C2CCN(C(=O)C3CCc4ccccc4C3)CC2)C[C@@H]1C (stereo partly drawn) [Compound 130] |
| > 100 | CCNC(=O)Nc1cc(Cl)c(N2CCN(C3CCN(Cc4ccc(Cl)cc4)CC3)[C@@H](CC)C2)c(Cl)c1 [Compound 193] |
| > 100 | C[C@H]1CN(c2ncc(N)cc2Cl)CCN1C1CCN(Cc2ccc(Cl)cc2F)CC1 [Compound 224] |
| < 25 | CC[C@H]1CN(c2ncc(NS(C)(=O)=O)cc2Cl)CCN1C1CCN(C(CO)c2ccc(Cl)cc2)CC1 (stereo partly drawn) [Compound 11] |
| > 100 | CC(C)C1CCC(N2CCC(N3C[C@H](C)N(c4ncc(Nc5c(NCC(F)(F)F)c(=O)c5=O)cc4Cl)C[C@H]3C)CC2)CC1 (stereo partly drawn) [Compound 169] |
| 25 to 100 | C[C@@H]1CN(C2CCN(Cc3ccc(Cl)cc3F)CC2)[C@@H](C)CN1c1ncc(Nc2c(NCC(F)(F)F)c(=O)c2=O)cc1Cl [Compound 104] |
| > 100 | CC[C@H]1CN(c2ncc(NS(C)(=O)=O)cc2Cl)CCN1C1CCN(Cc2cccs2)CC1 [Compound 58] |
| > 100 | CC[C@H]1CN(c2ncc(NS(=O)(=O)NC(=O)OC(C)(C)C)cc2Cl)CCN1C1CCN(Cc2ccc(Cl)cc2F)CC1 [Compound 55] |
| > 100 | COc1ccc(CN2CCC(N3CCN(c4ncc(NS(C)(=O)=O)cc4Cl)C[C@@H]3C)CC2)c(F)c1 [Compound 56] |
| > 100 | CC[C@H]1CN(c2ncc(NC(=O)C3CCCCC3)cc2Cl)CCN1C1CCN(Cc2ccc(Cl)cc2F)CC1 [Compound 195] |
| > 100 | CC[C@H]1CN(c2ncc(NS(C)(=O)=O)cc2Cl)CCN1C1CCN(Cc2ccc(N(C)C)cc2)CC1 [Compound 45] |
| < 25 | CC[C@H]1CN(c2ncc(NC3=NS(=O)(=O)N=C3NC(C)C)cc2Cl)CCN1C1CCN(Cc2ccc(Cl)cc2F)CC1 [Compound 243] |
| > 100 | C[C@H]1CN(c2ncc(NC(=O)c3ccc(Cl)cc3)cc2Cl)CCN1C1CCN(Cc2ccc(Cl)cc2)CC1 [Compound 200] |
| 25 to 100 | CC[C@H]1CN(c2ncc(NS(C)(=O)=O)cc2Cl)CCN1C1CCN(Cc2ccc(F)cc2)CC1 [Compound 25] |
| > 100 | C[C@@H]1CN(C2CCN(Cc3ccc(Cl)cc3F)CC2)[C@@H](C)CN1c1ncc(NS(C)(=O)=O)cc1Cl [Compound 50] |
| > 100 | Cc1cc(Nc2c(NCC(F)(F)F)c(=O)c2=O)cnc1N1C[C@@H](C)N(C2CCN(C(=O)c3ccc(C#N)cc3)CC2)C[C@@H]1C [Compound 131] |
| < 25 | CC[C@H]1CN(c2ncc(NC3=NS(=O)(=O)N=C3NC3CC3)cc2Cl)CCN1C1CCN(Cc2ccc(Cl)cc2-c2ncon2)CC1 [Compound 249] |

| IC50 [nM] | SMILES |
| --- | --- |
| > 100 | CC[C@H]1CN(c2ncc(NS(C)(=O)=O)cc2Cl)CCN1C1CCN([C@@H](C(N)=O)c2ccc(Cl)cc2)CC1 [Compound 59] |
| 25 to 100 | CC[C@H]1CN(c2ncc(N)cc2Cl)CCN1C1CCN(Cc2ccc(Cl)cc2F)CC1 [Compound 206] |
| < 25 | CC[C@H]1CN(c2ncc(NS(C)(=O)=O)cc2Cl)CCN1C1CCN(Cc2ccc(Br)cc2F)CC1 [Compound 8] |
| > 100 | CC[C@H]1CN(c2ncc(N(Cc3ccc(C#N)cc3)c3c(C(C)C)c(=O)c3=O)cc2Cl)CCN1C1CCN(Cc2ccc(C#N)cc2)CC1 [Compound 148] |
| < 25 | CC[C@H]1CN(c2ncc(NS(C)(=O)=O)cc2Cl)CCN1C1CCN(Cc2ccc(OC(F)F)cc2)CC1 [Compound 13] |
| 25 to 100 | CC[C@H]1CN(c2ncc(NS(N)(=O)=O)cc2Cl)CCN1C1CCN(C(=O)c2ccc(Cl)cc2)CC1 [Compound 33] |
| > 100 | COc1ccc(CN2CCC(N3C[C@H](C)N(c4ncc(Nc5c(NCC(F)(F)F)c(=O)c5=O)cc4Cl)C[C@H]3C)CC2)cc1 [Compound 117] |
| < 25 | CC[C@H]1CN(c2ncc(NC3=NS(=O)(=O)N=C3NC3CC3)cc2Cl)CCN1C1CCN(Cc2ccc(Cl)cc2-c2nnc[nH]2)CC1 [Compound 250] |
| > 100 | C[C@@H]1CN(c2ncc(Nc3c(NCC(F)(F)F)c(=O)c3=O)cc2Cl)[C@@H](C)CN1C1CCN(Cc2csc3ccccc23)CC1 [Compound 156] |
| > 100 | CC[C@H]1CN(c2ncc(NC3=NS(=O)(=O)N=C3N(C)C)cc2Cl)CCN1C1CCN(Cc2ccc(OC(F)(F)F)cc2)CC1 [Compound 271] |
| 25 to 100 | CCNC(=O)Nc1cnc(N2CCN(C3CCN(Cc4ccc(Cl)cc4)CC3)[C@@H](C)C2)c(Cl)c1 [Compound 190] |
| > 100 | C[C@@H]1CN(c2ncc(Nc3c(NCC(F)(F)F)c(=O)c3=O)cc2Cl)[C@@H](C)CN1C1CCN(Cc2ccccc2OCC(=O)O)CC1 [Compound 137] |
| < 25 | CC[C@H]1CN(c2ncc(NC3=NS(=O)(=O)N=C3NC3CC3)cc2Cl)CCN1C1CCN([C@H](CO)c2ccc(Cl)cc2)CC1 [Compound 240] |
| > 100 | CC[C@H]1CN(c2ncc(NS(C)(=O)=O)cc2Cl)CCN1C1CCN(Cc2c(F)cc(F)cc2F)CC1 [Compound 47] |
| > 100 | CC[C@H]1CN(c2ncc(Nc3c(NCC(=O)OC(C)(C)C)c(=O)c3=O)cc2Cl)CCN1C1CCN([C@@H](CO)c2ccc(Cl)cc2)CC1 [Compound 139] |
| < 25 | CC[C@H]1CN(c2ncc(NS(N)(=O)=O)cc2Cl)CCN1C1CCN(C(CO)c2ccc(Cl)cc2)CC1 (stereo partly drawn) [Compound 3] |
| > 100 | C[C@@H]1CN(c2ncc(Nc3c(NCC(F)(F)F)c(=O)c3=O)cc2Cl)[C@@H](C)CN1C1CCN(Cc2ccccc2Sc2ccc(Cl)cc2)CC1 [Compound 138] |
| < 25 | CC[C@H]1CN(c2ncc(NS(C)(=O)=O)cc2Cl)CCN1C1CCN(Cc2ccc(Br)cc2)CC1 [Compound 5] |
| > 100 | CC[C@H]1CN(c2ncc(NC3=NS(=O)(=O)N=C3N3CCC3)cc2Cl)CCN1C1CCN(Cc2ccc(F)c(F)c2)CC1 [Compound 268] |
| < 25 | CC[C@H]1CN(c2ncc(NS(C)(=O)=O)cc2Cl)CCN1C1CCN(Cc2ccc(OC)cc2OC)CC1 [Compound 18] |
| > 100 | Cc1cc(Nc2c(NCC(F)(F)F)c(=O)c2=O)cnc1N1C[C@@H](C)N(C2CCN(C(=O)c3c(C)noc3C)CC2)C[C@@H]1C [Compound 165] |
| > 100 | C[C@@H]1CN(c2ncc(Nc3c(NCC(F)(F)F)c(=O)c3=O)cc2Cl)[C@@H](C)CN1C1CCN(Cc2cc3ccccc3o2)CC1 [Compound 133] |
| > 100 | CC[C@H]1CN(c2ncc(NS(=O)(=O)c3ccc(Cl)cc3)cc2Cl)CCN1C1CCN(Cc2ccc(Cl)cc2F)CC1 [Compound 46] |
| < 25 | CC[C@H]1CN(c2ncc(Nc3c(NCCO)c(=O)c3=O)cc2Cl)CCN1C1CCN(Cc2ccc(Cl)cc2C(N)=O)CC1 [Compound 72] |
